≈ marks a conversion by molar mass, not a printed value. Like-named read-outs stand apart in the source and are kept apart here.
Legend:
pneumococci = test: microbe, parasite or virus in culture; format: cell-based, S. pneumoniae; settings: Streptococcus pneumoniae
S. aureus = test: mouse systemic infection model (PD50); format: in vivo
S. pyogenes [1] = format: cell-based; settings: for Mutant selection frequencies: S. pyogenes
S. pneumoniae [2] = format: cell-based
S. pneumoniae [3] = test: neutropenic mouse thigh infection; format: in vivo; settings: QD, PO
M. catarrhalis = test: microbe, parasite or virus in culture; format: cell-based; settings: Moraxella catarrhalis
S. pneumoniae [4] = test: microbe, parasite or virus in culture; format: cell-based; settings: Streptococcus pneumoniae
S. pneumoniae [5] = test: mouse subcutaneous abscess model; format: in vivo; settings: for average log10 CFU/gram of abscess: S. pneumoniae 1629, 10 mg/Kg PO
Description: Example. Efficacy was evaluated in several infection models. […] PD50s were determined 24 hr post infection. CEM-101 was further evaluated in a subcutaneous abscess mouse model against S. pneumoniae. CD-1 female mice were infected via SC injection of bacteria mixed with cyclodextran beads. Two hr post infection, mice received a single oral dose of CEM 101 or control agents. At 48 hr post dose, mice were euthanized, abscesses aseptically removed and bacteria enumerated. CFU per abscess was determined and compared to the untreated control. […] 24 hr post treatment, the thighs were processed and CFU/gram of thigh determined.
Example. Mouse Subcutaneous Abscess. Bacteria were prepared from an overnight plate culture by re-suspending in saline and adjusting the suspension to a 0.1 OD at 625 nm of a 1:10 dilution. The adjusted bacterial suspension was mixed 1:2 with cyclodextran beads prepared as per package instructions. The right flanks of the mice were shaven and injected subcutaneously with 0.2 ml of the bacterial inoculum. Two hours post infection mice were treated via oral gavage with either test article or control drug. 48 hours post infection, mice were euthanized, abscesses aseptically removed, homogenized, serially diluted and plated on bacterial growth agar. After overnight incubation, colonies were counted and CFUs/gram of abscess were determined.
Example. The ability of CEM101 to reduce the microbial load in abscess infection model was also assessed against S. pneumoniae isolates.

[6] = test system: intraphagocytic L. pneumophila ATCC 33153 (THP-1); format: cell-based; settings: intracellular L. pneumophila ATCC 33153
S. pneumoniae [7] = test: mouse systemic infection model (PD50); format: in vivo
S. pneumoniae [8] = test: MIC of the strains of the mouse systemic infection model; format: cell-based; settings: Streptococcus pneumoniae
S. pyogenes [9] = test: microbe, parasite or virus in culture; format: cell-based; settings: for MIC: Streptococcus pyogenes
[10] = S. pneumoniae (macrolide susceptible)

`CC[C@H]1OC(=O)[C@H](C)[C@@H](O[C@H]2C[C@@](C)(OC)[C@@H](O)[C@H](C)O2)[C@H](C)[C@@H](O[C@@H]2O[C@H](C)C[C@H](N(C)C)[C@H]2O)[C@](C)(OC)C[C@@H](C)C(=O)[C@H](C)[C@@H](O)[C@]1(C)O` [CLR, clarithromycin] was tested, and the MIC50 (pneumococci; pneumococci, L4 mutations (27)) was 16 µg/mL (≈ 21.4 µM), the MIC90 (pneumococci; pneumococci, L4 mutations (27)) was 32 µg/mL (≈ 42.8 µM) and the MIC (pneumococci; read-out: MIC range, pneumococci, L4 mutations (27)) was 1 to 32 µg/mL (≈ 1.34 to 42.8 µM). For the same compound, the PD50 (S. aureus; MRSA) was 5.0 mg/kg, the PD50 (S. aureus; MRSA 300 (CA)) was 19.5 mg/kg and the PD50 (S. aureus; S. aureus, single oral dose 1 hr post infection) was 22.7 mg/kg. The Mutant selection frequencies (S. pyogenes [1]; at 2×MIC) was <1.0×10^−10-1.7×10^−7, the Mutant selection frequencies (S. pyogenes [1]; at 8×MIC) was <1.0×10^−10-5.0×10^−9 and the “single step mutation frequency” value (S. pyogenes [1]; strain 237 Macrolide-R [L4 mutation], 2 × MIC) was <3.3 × 10^−10. For the same compound, the “single step mutation frequency” value (S. pyogenes [1]; strain 237 Macrolide-R [L4 mutation], 4 × MIC) was <3.3 × 10^−10, the “single step mutation frequency” value (S. pyogenes [1]; strain 237 Macrolide-R [L4 mutation], 8 × MIC) was <3.3 × 10^−10 and the “single step mutation frequency” value (S. pyogenes [1]; strain 2094 Macrolide-R [erm(A)], 2 × MIC) was 1.7 × 10^−7. For the same compound, the “single step mutation frequency” value (S. pyogenes [1]; strain 2094 Macrolide-R [erm(A)], 4 × MIC) was 1.0 × 10^−7, the “single step mutation frequency” value (S. pyogenes [1]; strain 2094 Macrolide-R [erm(A)], 8 × MIC) was 5.0 × 10^−9 and the “single step mutation frequency” value (S. pyogenes [1]; strain 2132 Macrolide-S, 2 × MIC) was <1.0 × 10^−10. For the same compound, the “single step mutation frequency” value (S. pyogenes [1]; strain 2132 Macrolide-S, 4 × MIC) was <1.0 × 10^−10, the “single step mutation frequency” value (S. pyogenes [1]; strain 2132 Macrolide-S, 8 × MIC) was <1.0 × 10^−10 and the Mutant selection frequencies (S. pneumoniae [2]; S. pneumoniae, at 2×MIC) was <1.0×10^−9-5.0×10^−7. The “single step mutation frequency” value (S. pneumoniae [2]; strain 1077 Macrolide-S, 2 × MIC) was 1.1 × 10^−9, the “single step mutation frequency” value (S. pneumoniae [2]; strain 1077 Macrolide-S, 4 × MIC) was <1.2 × 10^−10 and the “single step mutation frequency” value (S. pneumoniae [2]; strain 1077 Macrolide-S, 8 × MIC) was <1.2 × 10^−10. For the same compound, the “single step mutation frequency” value (S. pneumoniae [2]; strain 1635 Macrolide-R [erm(A)], 2 × MIC) was <3.1 × 10^−9, the “single step mutation frequency” value (S. pneumoniae [2]; strain 1635 Macrolide-R [erm(A)], 4 × MIC) was <3.1 × 10^−9 and the “single step mutation frequency” value (S. pneumoniae [2]; strain 1635 Macrolide-R [erm(A)], 8 × MIC) was <3.1 × 10^−9. For the same compound, the “single step mutation frequency” value (S. pneumoniae [2]; strain 3665 Macrolide-R [mef(A)], 2 × MIC) was 5.0 × 10^−7, the “single step mutation frequency” value (S. pneumoniae [2]; strain 3665 Macrolide-R [mef(A)], 4 × MIC) was <5.0 × 10^−10 and the “single step mutation frequency” value (S. pneumoniae [2]; strain 3665 Macrolide-R [mef(A)], 8 × MIC) was <5.0 × 10^−10. For the same compound, the “single step mutation frequency” value (S. pneumoniae [2]; strain 7127 Macrolide-S [S20N in L4, A105V in L22], 2 × MIC) was <1.0 × 10^−9, the “single step mutation frequency” value (S. pneumoniae [2]; strain 7127 Macrolide-S [S20N in L4, A105V in L22], 4 × MIC) was <1.0 × 10^−9 and the “single step mutation frequency” value (S. pneumoniae [2]; strain 7127 Macrolide-S [S20N in L4, A105V in L22], 8 × MIC) was <1.0 × 10^−9. The “Dose for 1 log10 Reduction from 24 hour controls” value (S. pneumoniae [3]; S. pneumoniae 1629) was 4.5 mg/Kg, the “Dose for 3 log10 Reduction from 24 hour controls” value (S. pneumoniae [3]; S. pneumoniae 1629) was 13.5 mg/Kg and the “Dose for 1 log10 Reduction from 24 hour controls” value (S. pneumoniae [3]; S. pneumoniae 6303) was 5.5 mg/Kg. The “Dose for 2 log10 Reduction from 24 hour controls” value (S. pneumoniae [3]; S. pneumoniae 6303) was 9.2 mg/Kg, the “Dose for 3 log10 Reduction from 24 hour controls” value (S. pneumoniae [3]; S. pneumoniae 6303) was 14.0 mg/Kg and the MIC90 (M. catarrhalis) was 0.12 µg/mL (≈ 0.16 µM). The MIC90 (S. pneumoniae [4]) was over 32 µg/mL, the “average log10 CFU/gram of abscess” value (S. pneumoniae [5]; 24 hours) was about 5.5 log10 CFU/gram and the “average log10 CFU/gram of abscess” value (S. pneumoniae [5]; 48 hours) was about 5.5 log10 CFU/gram. The “log decrease of CFU from untreated mice” value (S. pneumoniae [5]; abscess, 10 mg/Kg QD dose) was 1.5 log10, the “Cs, static concentration” value [6] was 0.12 mg/L and the PD50 (S. pneumoniae [7]; [10]) was 32.1 mg/kg. The PD50 (S. pneumoniae [7]; S. pneumoniae (mefR)) was over 30 mg/kg, the PD50 (S. pneumoniae [7]; S. pneumoniae serotype 19A) was 5.03 mg/kg and the MIC (S. pneumoniae [8]; [10]) was over 16 µg/mL. For the same compound, the MIC (S. pneumoniae [8]; S. pneumoniae (mefR), read-out: MIC) was 0.5 µg/mL, the MIC (S. pneumoniae [8]; S. pneumoniae serotype 19A, read-out: MIC) was over 16 µg/mL and the “strains with resistant clones / strains tested” value (S. pyogenes [9]; S. pyogenes) was 1/4. It also gave an MIC (S. pyogenes [9]; read-out: Initial MIC, strain 237 Macrolide-R [LA mutation], parent) of 0.25 µg/mL (≈ 0.334 µM), an MIC (S. pyogenes [9]; read-out: Initial MIC, strain 2011 Macrolide-R [mef(A)], parent) of 4 µg/mL (≈ 5.35 µM) and an MIC (S. pyogenes [9]; read-out: Initial MIC, strain 2094 Macrolide-R [erm(A)], parent) of 0.5 µg/mL (≈ 0.668 µM). It also gave an MIC (S. pyogenes [9]; read-out: Initial MIC, strain 2132 Macrolide-S, parent) of 0.03 µg/mL (≈ 0.0401 µM), an MIC (S. pyogenes [9]; read-out: Initial MIC, strain 2368 Macrolide-R [erm(B)], parent) of over 64 µg/mL and an MIC (S. pyogenes [9]; read-out: MIC of parent of resistant clone, S. pyogenes) of 500 µg/mL. The MIC (S. pyogenes [9]; read-out: MIC of parents of resistant clones, S. pyogenes) was 0.5 µg/mL, the MIC (S. pyogenes [9]; read-out: MIC of resistant clones, S. pyogenes) was over 64 µg/mL and the MIC (S. pyogenes [9]; read-out: Parental MICs, S. pyogenes, 5 strains with varying resistotypes) was 0.03 to 4 µg/mL (≈ 0.0401 to 5.35 µM). The MIC (S. pyogenes [9]; read-out: Selected Resistance (MIC), strain 237 Macrolide-R [LA mutation], after serial passages in the drug) was 1 µg/mL (≈ 1.34 µM), the MIC (S. pyogenes [9]; read-out: Selected Resistance (MIC), strain 2011 Macrolide-R [mef(A)], after serial passages in the drug) was 8 µg/mL (≈ 10.7 µM) and the MIC (S. pyogenes [9]; read-out: Selected Resistance (MIC), strain 2094 Macrolide-R [erm(A)], after serial passages in the drug) was over 64 µg/mL. The MIC (S. pyogenes [9]; read-out: Selected Resistance (MIC), strain 2132 Macrolide-S, after serial passages in the drug) was 0.016 µg/mL (≈ 0.0214 µM), the “days until resistant clones (MIC increase)” value (S. pyogenes [9]; daily passages, max. 50) was 6 days and the “Retest MIC after 10 Antibioticfree Subcultures” value (S. pyogenes [9]; strain 237 Macrolide-R [LA mutation], clone selected with CEM-101) was 1 µg/mL. For the same compound, the “Retest MIC after 10 Antibioticfree Subcultures” value (S. pyogenes [9]; strain 237 Macrolide-R [LA mutation], clone selected with CLN) was 0.5 µg/mL, the “Retest MIC after 10 Antibioticfree Subcultures” value (S. pyogenes [9]; strain 2011 Macrolide-R [mef(A)], clone selected with AZI) was 4 µg/mL and the “Retest MIC after 10 Antibioticfree Subcultures” value (S. pyogenes [9]; strain 2094 Macrolide-R [erm(A)], clone selected with AZI) was 1 µg/mL. For the same compound, the “Retest MIC after 10 Antibioticfree Subcultures” value (S. pyogenes [9]; strain 2094 Macrolide-R [erm(A)], clone selected with CEM-101) was 8 µg/mL, the “Retest MIC after 10 Antibioticfree Subcultures” value (S. pyogenes [9]; strain 2094 Macrolide-R [erm(A)], clone selected with CLN) was 1 µg/mL and the “Retest MIC after 10 Antibioticfree Subcultures” value (S. pyogenes [9]; strain 2094 Macrolide-R [erm(A)], clone selected with CLR) was over 64 µg/mL. For the same compound, the “Retest MIC after 10 Antibioticfree Subcultures” value (S. pyogenes [9]; strain 2094 Macrolide-R [erm(A)], clone selected with TEL) was 8 µg/mL, the “Retest MIC after 10 Antibioticfree Subcultures” value (S. pyogenes [9]; strain 2132 Macrolide-S, clone selected with AZI) was 0.25b μg/ml and the “Retest MIC after 10 Antibioticfree Subcultures” value (S. pyogenes [9]; strain 2368 Macrolide-R [erm(B)], clone selected with CEM-101) was over 64 µg/mL. For the same compound, the “Retest MIC after 10 Antibioticfree Subcultures” value (S. pyogenes [9]; strain 2368 Macrolide-R [erm(B)], clone selected with TEL) was over 64 µg/mL.

— patent publication US9901592B2 (priority 2008, dated 2018)
